The values that follow are results of earlier work, collected in patent publication US20040121407A1, “Regulation of the growth hormone/IGF-1 axis” (ELIXIR PHARMACEUTICALS, INC., priority 2002, published 2004).

For one data set, the target named is human SST2 (Homo sapiens, UniProt P30874).
The next data set has as its system IGF-1 levels. The following applies: administered subcutaneously.

Sequence of human SST2 (P30874 whole entry): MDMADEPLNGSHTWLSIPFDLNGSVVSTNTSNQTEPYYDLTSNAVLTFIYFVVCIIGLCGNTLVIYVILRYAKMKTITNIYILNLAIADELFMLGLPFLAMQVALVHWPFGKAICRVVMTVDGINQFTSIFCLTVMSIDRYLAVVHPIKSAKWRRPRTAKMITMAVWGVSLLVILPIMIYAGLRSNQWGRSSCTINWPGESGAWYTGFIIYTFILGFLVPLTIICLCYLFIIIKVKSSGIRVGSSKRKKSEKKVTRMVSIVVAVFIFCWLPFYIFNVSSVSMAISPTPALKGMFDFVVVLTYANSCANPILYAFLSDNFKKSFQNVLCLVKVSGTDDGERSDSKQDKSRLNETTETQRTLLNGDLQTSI

As to `CC(C)(C)OC(=O)[C@H](CCCCN)NC(=O)[C@@H](Cc1c[nH]c2ccccc12)NC(=O)N1CCC(n2c(=O)[nH]c3ccccc32)CC1` [L-054,522], the selectivity entry at human SST2 was “highly selective”.
Regarding “[N-acetyl-Tyr^1,D-Arg^2] GHRH^1-29NH2 [standard GHRH antagonist]”, the “human GH secretory response to exogenous GHRH” value with GH secretion (exogenous GHRH) is reported as “inhibits”. The “spontaneous GH secretion” value in the data set with GH secretion (in vivo) is listed as “lowers”.
Take “Pegvisomant: modified human GH in which nine amino acids have been replaced, with polyethylene glycol polymers; GH receptor antagonist”: the IGF-1 levels entry in the data set with IGF-1 levels was “dose dependent reduction”.
